# Test results: BindingDB's records for doi:10.1016/j.bmcl.2010.08.118 (Roche Palo Alto, 2010)
# Test: Inhibition of CCR5 by cell-cell fusion inhibition assay
row,SMILES,IC50 [nM]
1,"Cc1ncnc(C)c1C(=O)N1C[C@H]2CN(CCC(c3ccccc3)C3CN(C(=O)CC(C)C)C3)C[C@H]2C1 (stereo partly drawn) [1-(3-(3-((3aR,6aS)-5-(4,6-dimethylpyrimidine-5-carbonyl)hexahydropyrrolo[3,4-c]pyrrol-2(1H)-yl)-1-phenylpropyl)azetidin-1-yl)-3-methylbutan-1-one]",> 5000
2,"Cc1ncnc(C)c1C(=O)N1C[C@H]2CN(CCC(c3ccccc3)C3CCN(C(=O)C(C)C)CC3)C[C@H]2C1 (stereo partly drawn) [1-(4-(3-((3aR,6aS)-5-(4,6-dimethylpyrimidine-5-carbonyl)hexahydropyrrolo[3,4-c]pyrrol-2(1H)-yl)-1-phenylpropyl)piperidin-1-yl)-2-methylpropan-1-one]",> 5000
3,"Cc1ncnc(C)c1C(=O)N1C[C@H]2CN(CCC(c3ccccc3)C3CCN(C(=O)CC(C)C)CC3)C[C@H]2C1 (stereo partly drawn) [1-(4-(3-((3aR,6aS)-5-(4,6-dimethylpyrimidine-5-carbonyl)hexahydropyrrolo[3,4-c]pyrrol-2(1H)-yl)-1-phenylpropyl)piperidin-1-yl)-3-methylbutan-1-one]",2820
4,"CCC(=O)N1CCC(C(CCN2C[C@@H]3CN(C(=O)c4c(C)ncnc4C)C[C@@H]3C2)c2ccccc2)CC1 (stereo partly drawn) [1-(4-(3-((3aR,6aS)-5-(4,6-dimethylpyrimidine-5-carbonyl)hexahydropyrrolo[3,4-c]pyrrol-2(1H)-yl)-1-phenylpropyl)piperidin-1-yl)propan-1-one]",> 5000
5,"Cc1cc(=O)oc(C)c1C(=O)N1C[C@H]2CN(CCC(c3ccccc3)C3CCN(S(C)(=O)=O)CC3)C[C@H]2C1 (stereo partly drawn) [4,6-dimethyl-5-((3aR,6aS)-5-(3-(1-(methylsulfonyl)piperidin-4-yl)-3-phenylpropyl)octahydropyrrolo[3,4-c]pyrrole-2-carbonyl)-2H-pyran-2-one]",8
6,"Cc1ncnc(C)c1C(=O)N1C[C@H]2CN(CCC(c3ccccc3)C3CCN(C(=O)NC(C)C)CC3)C[C@H]2C1 (stereo partly drawn) [4-(3-((3aR,6aS)-5-(4,6-dimethylpyrimidine-5-carbonyl)hexahydropyrrolo[3,4-c]pyrrol-2(1H)-yl)-1-phenylpropyl)-N-isopropylpiperidine-1-carboxamide]",> 5000
7,"Cc1ncnc(C)c1C(=O)N1C[C@H]2CN(CCC(c3ccccc3)C3CN(S(=O)(=O)C(C)C)C3)C[C@H]2C1 (stereo partly drawn) [(4,6-dimethylpyrimidin-5-yl)((3aR,6aS)-5-(3-(1-(isopropylsulfonyl)azetidin-3-yl)-3-phenylpropyl)hexahydropyrrolo[3,4-c]pyrrol-2(1H)-yl)methanone]",93
8,"Cc1ncnc(C)c1C(=O)N1C[C@H]2CN(CCC(c3ccccc3)C3CCN(S(=O)(=O)C(C)C)CC3)C[C@H]2C1 (stereo partly drawn) [(4,6-dimethylpyrimidin-5-yl)((3aR,6aS)-5-(3-(1-(isopropylsulfonyl)piperidin-4-yl)-3-phenylpropyl)hexahydropyrrolo[3,4-c]pyrrol-2(1H)-yl)methanone]",99
9,"Cc1ncnc(C)c1C(=O)N1C[C@H]2CN(CCC(c3ccccc3)C3CN(CC(F)(F)F)C3)C[C@H]2C1 (stereo partly drawn) [(4,6-dimethylpyrimidin-5-yl)((3aR,6aS)-5-(3-phenyl-3-(1-(2,2,2-trifluoroethyl)azetidin-3-yl)propyl)hexahydropyrrolo[3,4-c]pyrrol-2(1H)-yl)methanone]",> 5000
10,"Cc1ncnc(C)c1C(=O)N1C[C@H]2CN(CCC(c3ccccc3)C3CCN(CC(F)(F)F)CC3)C[C@H]2C1 (stereo partly drawn) [(4,6-dimethylpyrimidin-5-yl)((3aR,6aS)-5-(3-phenyl-3-(1-(2,2,2-trifluoroethyl)piperidin-4-yl)propyl)hexahydropyrrolo[3,4-c]pyrrol-2(1H)-yl)methanone]",34
11,"Cc1ncnc(C)c1C(=O)N1C[C@H]2CN(CCC(c3cccc(F)c3)C3CCN(CC(F)F)CC3)C[C@H]2C1 (stereo partly drawn) [((3aR,6aS)-5-(3-(1-(2,2-difluoroethyl)piperidin-4-yl)-3-(3-fluorophenyl)propyl)hexahydropyrrolo[3,4-c]pyrrol-2(1H)-yl)(4,6-dimethylpyrimidin-5-yl)methanone]",11
12,"Cc1ncnc(C)c1C(=O)N1C[C@H]2CN(CCC(c3ccccc3)C3CCN(CC(F)F)CC3)C[C@H]2C1 (stereo partly drawn) [((3aR,6aS)-5-(3-(1-(2,2-difluoroethyl)piperidin-4-yl)-3-phenylpropyl)hexahydropyrrolo[3,4-c]pyrrol-2(1H)-yl)(4,6-dimethylpyrimidin-5-yl)methanone]",137
13,"Cc1ncnc(C)c1C(=O)N1C[C@H]2CN(CCC(c3ccccc3)C3CN(C(=O)C4CCCC4)C3)C[C@H]2C1 (stereo partly drawn) [((3aR,6aS)-5-(3-(1-(cyclopentanecarbonyl)azetidin-3-yl)-3-phenylpropyl)hexahydropyrrolo[3,4-c]pyrrol-2(1H)-yl)(4,6-dimethylpyrimidin-5-yl)methanone]",2830
14,"Cc1ncnc(C)c1C(=O)N1C[C@H]2CN(CCC(c3cc(F)cc(F)c3)C3CN(S(=O)(=O)C4CC4)C3)C[C@H]2C1 (stereo partly drawn) [((3aR,6aS)-5-(3-(1-(cyclopropylsulfonyl)azetidin-3-yl)-3-(3,5-difluorophenyl)propyl)hexahydropyrrolo[3,4-c]pyrrol-2(1H)-yl)(4,6-dimethylpyrimidin-5-yl)methanone]",63
15,"Cc1ncnc(C)c1C(=O)N1C[C@H]2CN(CCC(c3cccc(F)c3)C3CN(S(=O)(=O)C4CC4)C3)C[C@H]2C1 (stereo partly drawn) [((3aR,6aS)-5-(3-(1-(cyclopropylsulfonyl)azetidin-3-yl)-3-(3-fluorophenyl)propyl)hexahydropyrrolo[3,4-c]pyrrol-2(1H)-yl)(4,6-dimethylpyrimidin-5-yl)methanone]",30
16,"Cc1ncnc(C)c1C(=O)N1C[C@H]2CN(CCC(c3ccccc3)C3CN(S(=O)(=O)C4CC4)C3)C[C@H]2C1 (stereo partly drawn) [((3aR,6aS)-5-(3-(1-(cyclopropylsulfonyl)azetidin-3-yl)-3-phenylpropyl)hexahydropyrrolo[3,4-c]pyrrol-2(1H)-yl)(4,6-dimethylpyrimidin-5-yl)methanone]",313
17,"COC(=O)N1CCC(C(CCN2C[C@@H]3CN(C(=O)c4c(C)ncnc4C)C[C@@H]3C2)c2ccccc2)CC1 (stereo partly drawn) [methyl 4-(3-((3aR,6aS)-5-(4,6-dimethylpyrimidine-5-carbonyl)hexahydropyrrolo[3,4-c]pyrrol-2(1H)-yl)-1-phenylpropyl)piperidine-1-carboxylate]",744
